Where two headings read alike, the source gives them in different places.
Key:
SF-295 = assay: NCI 60 cell panel SRB screen; type: cell-based; conditions: Homo sapiens
UACC-62 = assay: NCI 60 cell panel SRB screen; type: cell-based
SNB-19 = assay: NCI 60 cell panel SRB screen; type: cell-based; conditions: Homo sapiens
HOP-62 = assay: NCI 60 cell panel SRB screen; type: cell-based; conditions: Homo sapiens
ACHN = assay: NCI 60 cell panel SRB screen; type: cell-based; conditions: Homo sapiens
A498 = assay: NCI 60 cell panel SRB screen; type: cell-based; conditions: Homo sapiens
SK-MEL-5 = assay: NCI 60 cell panel SRB screen; type: cell-based; conditions: Homo sapiens
DU-145 = assay: NCI 60 cell panel SRB screen; type: cell-based; conditions: Homo sapiens
CAKI-1 = assay: NCI 60 cell panel SRB screen; type: cell-based, human; conditions: Homo sapiens; CAKI-1, single dose 10 μM; read-out: percent cell growth promotion
MDA-MB 231/ATCC = assay: NCI 60 cell panel SRB screen; type: cell-based; conditions: Homo sapiens
U251 = assay: NCI 60 cell panel SRB screen; type: cell-based; conditions: Homo sapiens, U-251
SN12C = assay: NCI 60 cell panel SRB screen; type: cell-based; conditions: Homo sapiens
HCT-15 = assay: NCI 60 cell panel SRB screen; type: cell-based; conditions: Homo sapiens
HCT-116 = assay: NCI 60 cell panel SRB screen; type: cell-based; conditions: Homo sapiens
HS 578T = assay: NCI 60 cell panel SRB screen; type: cell-based; conditions: Homo sapiens
M14 = assay: NCI 60 cell panel SRB screen; type: cell-based; conditions: Homo sapiens
MDA-MB-435 = assay: NCI 60 cell panel SRB screen; type: cell-based; conditions: Homo sapiens
full NCI 60 cell panel = assay: NCI 60 cell panel SRB screen, whole panel; type: cell-based, human; conditions: Homo sapiens, 60 cell; for inhibition at 10 µM: single dose 10 µM
Text: Aiming to evaluate the general antitumour activity of the synthesised phthalazines, the structures of the final compounds were submitted to National Cancer Institute “NCI” (www.dtp.nci.nih.gov), Bethesda, Maryland, USA. In vitro NCI anticancer screening involves two-stage process, the first stage started with the evaluation of the selected candidates against the full NCI 60 cell lines panel representing leukaemia, non-small cell lung cancer, melanoma, colon, CNS, breast, ovarian, renal and prostate cancers at a single dose of 10 µM. NCI selection is based on degree of structure variation and application of computer modelling techniques to prioritise compounds based on their ability to add diversity to the NCI small molecule compound collection.
Eight compounds (6b, 6e, 7b, 13a, 13c, 16a, 16d and 17a) were selected by NCI for further 5 log dose screening against full NCI 60 cell panel. All the 60 cell lines, representing nine tumour subpanels (leukaemia, non-small cell lung cancer, colon cancer, CNS cancer, prostate cancer, melanoma, ovarian cancer, renal cancer and breast cancer) which were incubated at five different concentrations (0.01, 0.1, 1, 10 and 100 µM) of each of the test compounds. The outcomes were used to create log concentration vs % growth inhibition curves, then three response parameters (GI50, TGI and LC50) were calculated for each cell line, (Tables S4 and S5 in Supplementary material).
The human tumor cell lines of the cancer-screening panel were grown in RPMI 1640 medium containing 5% fetal bovine serum and […] L-glutamine. For a typical screening experiment, cells are inoculated into 96 well microtiter plates in 100 ml at plating densities ranging from 5000 to 40,000 cells/well depending on the doubling time of individual cell lines. After cell inoculation, the microtiter plates are incubated at 37 °C, 5% CO2, 95% air and 100%
relative humidity for 24 h prior to addition of experimental drugs. After 24 h, two plates of each cell line are fixed in situ with TCA, to represent a measurement of the cell population for each cell line at the time of drug addition (Tz). Experimental drugs are dissolved in dimethyl sulfoxide at 400-fold the desired final maximum test concentration and stored frozen prior to use. At the time of drug addition, an aliquot of frozen concentrate is thawed and diluted to twice the desired final maximum test concentration with complete medium containing […] Gentamicin. Additional four, 10-fold or ½log serial dilutions are made to provide a total of five drug concentrations plus control. Aliquots of […] of these different drug dilutions are added to the appropriate microtiter wells already containing 100 ml of medium, resulting in the required final drug concentrations. Following drug addition, the plates are incubated for an additional 48 h at 37 °C, 5% CO2, 95% air, and 100% relative humidity. For adherent cells, the assay is terminated by the addition of cold TCA. Cells are fixed in situ by the gentle addition of […] of cold 50% (w/v) TCA (final concentration,10% TCA) and incubated for 60 min at 4 °C. The supernatant is discarded, and the plates are washed five times with tap water and air dried. Sulforhodamine B (SRB) solution (100 ml) at 0.4% (w/v) in 1% acetic acid is added to each well, and plates are incubated for 10 min at room temperature. After staining, unbound dye is removed by washing five times with 1% acetic acid and the plates are air dried. Bound stain is subsequently dissolved with 10 μM trizma base, and the absorbance is read on an automated plate reader at a wavelength of 515 nm. For suspension cells, the methodology is the same except that the assay is terminated by fixing settled cells at the bottom of the wells by gently adding […] of 80% TCA (final concentration, 16% TCA). […]

MCF7 = assay: NCI 60 cell panel SRB screen; type: cell-based; conditions: Homo sapiens
[1] = 5 log dose, 48 h, read-out: LC50 (the source's name)
[2] = single dose 10 μM, read-out: percent cell growth promotion

Which results are given for `COc1cccc(NCc2nnc(Nc3ccc(Cl)cc3)c3ccccc23)c1` [Compound 16d, N-(4-Chlorophenyl)-4-((3-methoxyphenylamino)methyl)phthalazin-1-amine]?
GI50 (SF-295; SF-295, 5 log dose): 1.94 µM; IC (TGI) (SF-295; SF-295, 5 log dose): 8.24 µM; CC50 (SF-295; SF-295, 5 log dose, 48 h, read-out: LC50 (the source's name)): > 25 µM; activity at 10 µM (SF-295; SF-295, single dose 10 μM, read-out: percent cell growth promotion): -22.6%; GI50 (UACC-62; Homo sapiens, UACC-62): 1 µM; activity at 10 µM (UACC-62; Homo sapiens, UACC-62, read-out: percent cell growth promotion): -29.2%; CC50 (UACC-62; Homo sapiens, UACC-62, 5 log dose, 48 h, read-out: LC50 (the source's name)): 20.1 µM; TGI (UACC-62; UACC-62, 5 log dose): 5.76 µM; GI50 (SNB-19; SNB-19, 5 log dose): 3.5 µM; IC (TGI) (SNB-19; SNB-19, 5 log dose): 13 µM; CC50 (SNB-19; SNB-19, 5 log dose, 48 h, read-out: LC50 (the source's name)): > 25 µM; activity at 10 µM (SNB-19; SNB-19, single dose 10 μM, read-out: percent cell growth promotion): 17.8%; GI50 (HOP-62; HOP-62, 5 log dose): 2.06 µM; IC (TGI) (HOP-62; HOP-62, 5 log dose): 8.48 µM; CC50 (HOP-62; HOP-62, 5 log dose, 48 h, read-out: LC50 (the source's name)): > 25 µM; activity at 10 µM (HOP-62; HOP-62, single dose 10 μM, read-out: percent cell growth promotion): -17.1%; GI50 (ACHN; 5 log dose): 1.56 µM; IC (TGI) (ACHN; 5 log dose): 24.4 µM; CC50 (ACHN; [1]): > 25 µM; activity at 10 µM (ACHN; [2]): -5.35%; GI50 (A498; A498, 5 log dose): 1.27 µM; IC (TGI) (A498; A498, 5 log dose): 4.42 µM; CC50 (A498; A498, 5 log dose, 48 h, read-out: LC50 (the source's name)): 11.5 µM; activity at 10 µM (A498; A498, single dose 10 μM, read-out: percent cell growth promotion): -26.8%; GI50 (SK-MEL-5; SK-MEL-5): 0.81 µM; IC (TGI) (SK-MEL-5; SK-MEL-5, read-out: TGI): 4.18 µM; activity at 10 µM (SK-MEL-5; SK-MEL-5, read-out: percent cell growth promotion): -98.5%; CC50 (SK-MEL-5; SK-MEL-5, 5 log dose, 48 h, read-out: LC50 (the source's name)): 10.2 µM; GI50 (DU-145; DU-145, 5 log dose): 2.4 µM; IC (TGI) (DU-145; DU-145, 5 log dose): 6.52 µM; CC50 (DU-145; DU-145, 5 log dose, 48 h, read-out: LC50 (the source's name)): 17.2 µM; activity at 10 µM (DU-145; DU-145, single dose 10 μM, read-out: percent cell growth promotion): 8.3%; activity at 10 µM (CAKI-1): 9.01%; GI50 (MDA-MB 231/ATCC; MDA-MB-231): 1.32 µM; IC (TGI) (MDA-MB 231/ATCC; MDA-MB-231, read-out: TGI): 6.32 µM; activity at 10 µM (MDA-MB 231/ATCC; MDA-MB-231, read-out: percent cell growth promotion): -27.1%; CC50 (MDA-MB 231/ATCC; MDA-MB-231, MDA-MDA 231/ATCC, 5 log dose, 48 h, read-out: LC50 (the source's name)): 19.7 µM; GI50 (U251; U251, 5 log dose): 2.78 µM; IC (TGI) (U251; U251, 5 log dose): 6.54 µM; CC50 (U251; U251, 5 log dose, 48 h, read-out: LC50 (the source's name)): > 25 µM; activity at 10 µM (U251; U251, single dose 10 μM, read-out: percent cell growth promotion): -56.2%; GI50 (SN12C; 5 log dose): 2.52 µM; IC (TGI) (SN12C; 5 log dose): 11 µM; CC50 (SN12C; [1]): > 25 µM; activity at 10 µM (SN12C; [2]): 14.5%; GI50 (HCT-15; HCT-15, 5 log dose): 1.78 µM; IC (TGI) (HCT-15; HCT-15, 5 log dose): 7.56 µM; CC50 (HCT-15; HCT-15, 5 log dose, 48 h, read-out: LC50 (the source's name)): > 25 µM; activity at 10 µM (HCT-15; HCT-15, single dose 10 μM, read-out: percent cell growth promotion): -18.1%; GI50 (HCT-116; HCT-116, 5 log dose): 0.88 µM; IC (TGI) (HCT-116; HCT-116, 5 log dose): 4.2 µM; LC50 (lethal concentration 50%) (HCT-116; HCT-116, 5 log dose, 48 h): 11.2 µM; activity at 10 µM (HCT-116; HCT-116, single dose 10 μM, read-out: percent cell growth promotion): -44.2%; GI50 (HS 578T; Hs-578T): 2.9 µM; IC (TGI) (HS 578T; Hs-578T, read-out: TGI): 11.5 µM; activity at 10 µM (HS 578T; Hs-578T, read-out: percent cell growth promotion): 0.54%; CC50 (HS 578T; HS 578T, 5 log dose, 48 h, read-out: LC50 (the source's name)): > 25 µM; GI50 (M14; M14): 0.85 µM; IC (TGI) (M14; M14, read-out: TGI): 4.69 µM; activity at 10 µM (M14; M14, read-out: percent cell growth promotion): -15.7%; CC50 (M14; M14, 5 log dose, 48 h, read-out: LC50 (the source's name)): 12.9 µM; GI50 (MDA-MB-435; MDA-MB-435): 0.73 µM; IC (TGI) (MDA-MB-435; MDA-MB-435, read-out: TGI): 4.38 µM; activity at 10 µM (MDA-MB-435; MDA-MB-435, read-out: percent cell growth promotion): -10.3%; CC50 (MDA-MB-435; MDA-MB-435, 5 log dose, 48 h, read-out: LC50 (the source's name)): 12 µM; activity at 10 µM (full NCI 60 cell panel; mean over the panel, single dose 10 μM, read-out: Mean percent cell growth promotion): -16%; inhibition at 10 µM (full NCI 60 cell panel; full panel, read-out: mean growth inhibition): 116%; inhibition at 10 µM (full NCI 60 cell panel; read-out: cell growth inhibition against various cell lines): > 90%; GI50 (MCF7; MCF7): 0.93 µM; IC (TGI) (MCF7; MCF7, read-out: TGI): 6.4 µM; activity at 10 µM (MCF7; MCF7, read-out: percent cell growth promotion): -1.96%; CC50 (MCF7; MCF7, 5 log dose, 48 h, read-out: LC50 (the source's name)): 24.9 µM

— article PMC6691788, “Design and synthesis of phthalazine-based compounds as potent anticancer agents with potential antiangiogenic activity via VEGFR-2 inhibition” (Journal of Enzyme Inhibition and Medicinal Chemistry, 2019)
